From patent publication US20260183295A1, “METHODS AND COMPOSITIONS FOR TREATING CANCER” (Onconova Therapeutics, Inc., priority 2022, published 2026)

Assays:
[1] = molecular target: T1, STK17B (Homo sapiens, UniProt O94768); assay: CETSA-MS, MDA-MB-231 cell lysates; format: binding; details: 2 μM and 20 μM
T1 construct: endogenous in cells; host or cells: MDA-MB-231
Method: (§1) Following treatment, cell lysates were thermally treated in a thermal gradient profile across a temperature range. Following the thermal shift, cell lysates were spun by centrifuge to pellet aggregate protein and the supernatant withdrawn. The supernatant was then denatured in buffer and heated to denature, reduce, and alkylate the supernatant proteins. Following heating and cooling to room temperature, cold acetone was added to the supernatant samples and proteins precipitated.
(§2) The intact cell protein samples and lysate protein samples were then digested and labeled for mass spectrometry analysis according to the manufacturer's recommended protocols. Digested and labeled protein samples were analyzed by mass spectrometry proteomic analysis and the resulting protein targets were analyzed and plotted.

[2] = molecular target: T2, MAP11 (Homo sapiens, UniProt Q8WVR3); assay: CETSA-MS, MDA-MB-231 cell lysates; format: binding; details: 2 μM and 20 μM
T2 construct: endogenous in cells; host or cells: MDA-MB-231
Method: as §1, §2

[3] = molecular target: T3, CDK2 (Homo sapiens, UniProt P24941); assay: CETSA-MS, MDA-MB-231 cell lysates; format: binding; details: 2 μM and 20 μM
T3 construct: endogenous in cells; host or cells: MDA-MB-231
Method: as §1, §2

[4] = molecular target: T4, LIMK1 (Homo sapiens, UniProt P53667); assay: CETSA-MS, MDA-MB-231 cell lysates; format: binding; details: 2 μM and 20 μM
T4 construct: endogenous in cells; host or cells: MDA-MB-231
Method: as §1, §2

[5] = molecular target: T5, DGCR6 (Homo sapiens, UniProt Q14129); assay: CETSA-MS, MDA-MB-231 cell lysates; format: binding; details: 2 μM and 20 μM
T5 construct: endogenous in cells; host or cells: MDA-MB-231
Method: as §1, §2

[6] = molecular target: T6, CDC42BPB (Homo sapiens, UniProt Q9Y5S2); assay: CETSA-MS, MDA-MB-231 cell lysates; format: binding; details: 2 μM and 20 μM
T6 construct: endogenous in cells; host or cells: MDA-MB-231
Method: as §1, §2

[7] = molecular target: T7, SLK (Homo sapiens, UniProt Q9H2G2); assay: CETSA-MS, MDA-MB-231 cell lysates; format: binding; details: 2 μM and 20 μM
T7 construct: endogenous in cells; host or cells: MDA-MB-231
Method: as §1, §2

[8] = molecular target: T8, FKBP8 (Homo sapiens, UniProt Q14318); assay: CETSA-MS, MDA-MB-231 cell lysates; format: binding; details: 2 μM and 20 μM
T8 construct: endogenous in cells; host or cells: MDA-MB-231
Method: as §1, §2

[9] = molecular target: T9, GSK3B (Homo sapiens, UniProt P49841); assay: CETSA-MS, MDA-MB-231 cell lysates; format: binding; details: 2 μM and 20 μM
T9 construct: endogenous in cells; host or cells: MDA-MB-231
Method: as §1, §2

[10] = molecular target: T10, GSK3A (Homo sapiens, UniProt P49840); assay: CETSA-MS, MDA-MB-231 cell lysates; format: binding; details: 2 μM and 20 μM
T10 construct: endogenous in cells; host or cells: MDA-MB-231
Method: as §1, §2

[11] = molecular target: T11, TGFBR2 (Homo sapiens, UniProt P37173); assay: CETSA-MS, MDA-MB-231 cell lysates; format: binding; details: 2 μM and 20 μM
T11 construct: endogenous in cells; host or cells: MDA-MB-231
Method: as §1, §2

[12] = molecular target: T12, CDK5 (Homo sapiens, UniProt Q00535); assay: CETSA-MS, MDA-MB-231 cell lysates; format: binding; details: 2 μM and 20 μM
T12 construct: endogenous in cells; host or cells: MDA-MB-231
Method: as §1, §2

[13] = molecular target: T13, AURKA (Homo sapiens, UniProt O14965); assay: CETSA-MS, MDA-MB-231 cell lysates; format: binding; details: 2 μM and 20 μM
T13 construct: endogenous in cells; host or cells: MDA-MB-231
Method: as §1, §2

[14] = molecular target: T14, CHEK1 (Homo sapiens, UniProt O14757); assay: CETSA-MS, MDA-MB-231 cell lysates; format: binding; details: 2 μM and 20 μM
T14 construct: endogenous in cells; host or cells: MDA-MB-231
T14 sequence (O14757 1-476): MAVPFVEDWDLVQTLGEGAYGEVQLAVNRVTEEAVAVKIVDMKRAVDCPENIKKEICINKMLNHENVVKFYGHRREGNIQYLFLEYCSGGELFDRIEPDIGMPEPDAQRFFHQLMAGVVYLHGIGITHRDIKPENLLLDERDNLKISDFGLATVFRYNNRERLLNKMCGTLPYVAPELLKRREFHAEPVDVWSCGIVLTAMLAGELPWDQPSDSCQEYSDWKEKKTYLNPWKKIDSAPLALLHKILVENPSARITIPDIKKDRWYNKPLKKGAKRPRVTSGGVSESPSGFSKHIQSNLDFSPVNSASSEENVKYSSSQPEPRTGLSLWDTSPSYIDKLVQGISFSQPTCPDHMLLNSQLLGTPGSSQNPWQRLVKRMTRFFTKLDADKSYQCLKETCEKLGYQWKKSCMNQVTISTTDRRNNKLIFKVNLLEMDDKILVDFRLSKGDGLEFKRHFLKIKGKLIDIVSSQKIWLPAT
Method: as §1, §2

[15] = molecular target: T15, TFEB (Homo sapiens, UniProt P19484); assay: CETSA-MS, MDA-MB-231 cell lysates; format: binding; details: 2 μM and 20 μM
T15 construct: endogenous in cells; host or cells: MDA-MB-231
Method: as §1, §2

[16] = molecular target: BUB1 (Homo sapiens, UniProt O43683); assay: CETSA-MS, MDA-MB-231 cell lysates; format: binding; details: 2 μM and 20 μM
Method: as §1, §2

[17] = tested on: PyMT cells; assay: Senescence-associated β-galactosidase staining, 48 hours; format: cell-based, mouse; details: compared to DMSO
Method: Following 48 hours of treatment, cells were stained for the senescence marker β-galactosidase.

[18] = tested on: MDA-MB-231 cells; assay: Annexin V/PI staining with or without bafilomycin A1, 2 days; format: cell-based; details: 5 μM
Description: The effect was increased with bafilomycin A1 cotreatment.

[19] = tested on: MDA-MB-231 cells; assay: Transmission electron microscopy of cellular morphology; format: cell-based; details: 5 μM, 24 hours, compared to DMSO
Method: The effect of Compound 1 (5 μM) treatment for 24 hours on cellular morphology was assessed using transmission electron microscopy (TEM) and compared to DMSO. FIG. 27 and FIG. 28 show representative TEM images of MDA-MB-231 cells treated with DMSO or Compound 1.

T12 sequence (Q00535 whole entry): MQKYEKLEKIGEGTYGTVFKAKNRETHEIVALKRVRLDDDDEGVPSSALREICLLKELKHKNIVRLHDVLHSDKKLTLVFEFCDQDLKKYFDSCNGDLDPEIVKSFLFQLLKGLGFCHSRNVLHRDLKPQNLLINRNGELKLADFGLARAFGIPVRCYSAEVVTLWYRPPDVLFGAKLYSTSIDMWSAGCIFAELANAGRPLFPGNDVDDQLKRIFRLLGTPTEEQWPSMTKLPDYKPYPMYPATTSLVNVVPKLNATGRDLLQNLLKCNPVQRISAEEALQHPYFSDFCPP
Sequence of BUB1 (O43683 whole entry): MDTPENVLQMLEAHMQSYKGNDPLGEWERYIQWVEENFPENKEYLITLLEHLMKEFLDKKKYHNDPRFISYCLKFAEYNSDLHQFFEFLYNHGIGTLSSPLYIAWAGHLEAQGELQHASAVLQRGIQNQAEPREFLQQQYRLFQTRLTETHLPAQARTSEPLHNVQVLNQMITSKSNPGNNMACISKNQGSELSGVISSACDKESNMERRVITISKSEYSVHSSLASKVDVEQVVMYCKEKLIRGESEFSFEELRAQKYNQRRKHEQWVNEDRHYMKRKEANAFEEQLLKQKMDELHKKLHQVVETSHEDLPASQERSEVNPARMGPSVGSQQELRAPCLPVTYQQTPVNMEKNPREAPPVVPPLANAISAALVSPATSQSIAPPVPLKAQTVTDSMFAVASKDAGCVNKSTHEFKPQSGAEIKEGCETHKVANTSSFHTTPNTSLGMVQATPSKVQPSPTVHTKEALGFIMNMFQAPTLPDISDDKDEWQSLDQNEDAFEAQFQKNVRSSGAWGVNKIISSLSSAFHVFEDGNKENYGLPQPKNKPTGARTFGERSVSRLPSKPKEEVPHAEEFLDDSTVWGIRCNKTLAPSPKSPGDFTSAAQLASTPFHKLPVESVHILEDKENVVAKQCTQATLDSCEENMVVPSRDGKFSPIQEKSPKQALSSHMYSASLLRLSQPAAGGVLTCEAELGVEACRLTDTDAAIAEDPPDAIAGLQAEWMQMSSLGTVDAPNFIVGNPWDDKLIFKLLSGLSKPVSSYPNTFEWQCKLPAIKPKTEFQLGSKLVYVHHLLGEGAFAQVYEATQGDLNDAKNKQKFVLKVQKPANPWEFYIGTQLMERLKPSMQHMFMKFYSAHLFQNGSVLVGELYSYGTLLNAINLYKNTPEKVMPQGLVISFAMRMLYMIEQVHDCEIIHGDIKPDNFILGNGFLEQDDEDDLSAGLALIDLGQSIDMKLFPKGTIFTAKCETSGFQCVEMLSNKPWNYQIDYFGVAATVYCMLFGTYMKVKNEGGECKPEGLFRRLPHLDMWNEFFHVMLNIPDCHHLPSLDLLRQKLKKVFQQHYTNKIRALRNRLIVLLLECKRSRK
T9 sequence (P49841 whole entry): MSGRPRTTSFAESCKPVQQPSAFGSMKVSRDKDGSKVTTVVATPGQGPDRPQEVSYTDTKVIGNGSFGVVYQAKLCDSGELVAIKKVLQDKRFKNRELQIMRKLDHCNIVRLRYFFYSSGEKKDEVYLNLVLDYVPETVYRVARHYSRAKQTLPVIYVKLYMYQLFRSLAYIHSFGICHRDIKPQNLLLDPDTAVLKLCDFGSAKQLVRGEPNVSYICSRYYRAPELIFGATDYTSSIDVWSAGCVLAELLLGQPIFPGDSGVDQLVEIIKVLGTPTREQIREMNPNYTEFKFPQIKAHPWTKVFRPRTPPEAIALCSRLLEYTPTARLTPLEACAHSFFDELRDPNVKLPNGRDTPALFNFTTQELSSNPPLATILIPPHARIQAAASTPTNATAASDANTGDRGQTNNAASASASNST
T15 sequence (P19484 whole entry): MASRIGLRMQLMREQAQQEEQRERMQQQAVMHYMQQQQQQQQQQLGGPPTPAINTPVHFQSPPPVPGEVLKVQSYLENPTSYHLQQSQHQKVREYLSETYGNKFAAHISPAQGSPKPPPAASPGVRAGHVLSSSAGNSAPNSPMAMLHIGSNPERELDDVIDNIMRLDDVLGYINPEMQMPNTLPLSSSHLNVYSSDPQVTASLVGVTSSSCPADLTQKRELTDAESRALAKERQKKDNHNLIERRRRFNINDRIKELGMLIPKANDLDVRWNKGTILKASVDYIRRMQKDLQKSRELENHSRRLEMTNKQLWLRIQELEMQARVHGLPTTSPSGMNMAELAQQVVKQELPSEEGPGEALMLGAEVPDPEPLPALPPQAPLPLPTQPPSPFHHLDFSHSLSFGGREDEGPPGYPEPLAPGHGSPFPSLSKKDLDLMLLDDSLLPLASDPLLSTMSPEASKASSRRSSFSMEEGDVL
T4 sequence (P53667 whole entry): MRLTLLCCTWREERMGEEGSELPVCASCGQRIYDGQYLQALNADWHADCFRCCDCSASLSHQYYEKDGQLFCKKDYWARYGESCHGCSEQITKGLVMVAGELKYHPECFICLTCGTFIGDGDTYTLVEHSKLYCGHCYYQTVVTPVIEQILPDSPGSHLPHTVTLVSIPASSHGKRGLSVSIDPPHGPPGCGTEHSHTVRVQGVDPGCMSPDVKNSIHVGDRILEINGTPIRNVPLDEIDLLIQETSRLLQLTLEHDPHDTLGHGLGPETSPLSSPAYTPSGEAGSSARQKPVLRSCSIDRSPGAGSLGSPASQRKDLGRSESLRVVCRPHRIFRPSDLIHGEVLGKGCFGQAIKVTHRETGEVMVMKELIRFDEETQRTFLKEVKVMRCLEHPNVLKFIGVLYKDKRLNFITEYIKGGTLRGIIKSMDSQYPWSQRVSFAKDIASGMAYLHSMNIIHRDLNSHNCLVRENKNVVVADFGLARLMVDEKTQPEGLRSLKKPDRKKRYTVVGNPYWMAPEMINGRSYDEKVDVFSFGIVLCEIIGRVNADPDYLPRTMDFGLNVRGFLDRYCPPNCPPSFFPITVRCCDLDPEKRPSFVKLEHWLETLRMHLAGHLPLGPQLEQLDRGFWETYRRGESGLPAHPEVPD
T6 sequence (Q9Y5S2 whole entry): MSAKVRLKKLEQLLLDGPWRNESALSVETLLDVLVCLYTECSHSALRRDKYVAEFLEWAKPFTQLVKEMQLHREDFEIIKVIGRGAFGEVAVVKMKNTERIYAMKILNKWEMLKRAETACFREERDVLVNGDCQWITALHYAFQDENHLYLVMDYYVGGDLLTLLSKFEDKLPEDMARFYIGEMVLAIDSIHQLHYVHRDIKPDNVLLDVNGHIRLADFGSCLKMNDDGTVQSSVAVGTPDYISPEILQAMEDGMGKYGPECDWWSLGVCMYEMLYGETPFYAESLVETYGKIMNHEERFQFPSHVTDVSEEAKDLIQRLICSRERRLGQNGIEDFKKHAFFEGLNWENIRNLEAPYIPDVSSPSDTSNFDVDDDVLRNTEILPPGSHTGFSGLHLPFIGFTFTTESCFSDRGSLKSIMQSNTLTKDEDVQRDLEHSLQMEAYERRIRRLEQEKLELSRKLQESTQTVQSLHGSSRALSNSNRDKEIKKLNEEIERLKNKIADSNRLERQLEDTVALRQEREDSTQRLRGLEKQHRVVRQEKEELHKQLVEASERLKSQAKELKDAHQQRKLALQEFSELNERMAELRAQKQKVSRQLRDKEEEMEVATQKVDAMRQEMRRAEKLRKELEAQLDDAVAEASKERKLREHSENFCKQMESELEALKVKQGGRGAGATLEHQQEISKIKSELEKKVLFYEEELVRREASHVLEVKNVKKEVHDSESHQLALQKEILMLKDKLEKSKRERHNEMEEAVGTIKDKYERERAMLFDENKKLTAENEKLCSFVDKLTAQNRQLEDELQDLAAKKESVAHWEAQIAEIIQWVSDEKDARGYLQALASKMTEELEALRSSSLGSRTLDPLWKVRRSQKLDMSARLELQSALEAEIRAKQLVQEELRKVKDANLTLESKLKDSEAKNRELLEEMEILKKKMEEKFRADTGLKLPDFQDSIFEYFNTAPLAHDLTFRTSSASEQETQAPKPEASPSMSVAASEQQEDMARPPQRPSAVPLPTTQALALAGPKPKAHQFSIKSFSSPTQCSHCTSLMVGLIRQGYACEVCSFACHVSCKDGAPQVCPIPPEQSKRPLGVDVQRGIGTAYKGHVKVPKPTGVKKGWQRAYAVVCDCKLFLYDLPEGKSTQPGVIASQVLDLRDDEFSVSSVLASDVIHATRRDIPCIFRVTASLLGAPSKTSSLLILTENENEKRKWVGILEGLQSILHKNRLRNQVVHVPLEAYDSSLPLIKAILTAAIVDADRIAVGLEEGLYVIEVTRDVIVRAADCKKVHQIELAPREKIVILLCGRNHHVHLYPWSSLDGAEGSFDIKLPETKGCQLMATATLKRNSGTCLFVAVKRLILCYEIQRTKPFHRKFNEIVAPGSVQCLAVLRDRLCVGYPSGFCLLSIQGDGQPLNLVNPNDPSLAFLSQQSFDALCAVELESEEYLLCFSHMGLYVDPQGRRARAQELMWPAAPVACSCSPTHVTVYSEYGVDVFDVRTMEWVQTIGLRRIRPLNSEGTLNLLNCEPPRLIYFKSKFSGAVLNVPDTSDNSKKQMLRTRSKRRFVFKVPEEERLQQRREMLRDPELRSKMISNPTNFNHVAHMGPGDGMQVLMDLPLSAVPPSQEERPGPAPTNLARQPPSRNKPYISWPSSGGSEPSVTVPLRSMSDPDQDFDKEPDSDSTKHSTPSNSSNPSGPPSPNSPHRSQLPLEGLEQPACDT
T1 sequence (O94768 whole entry): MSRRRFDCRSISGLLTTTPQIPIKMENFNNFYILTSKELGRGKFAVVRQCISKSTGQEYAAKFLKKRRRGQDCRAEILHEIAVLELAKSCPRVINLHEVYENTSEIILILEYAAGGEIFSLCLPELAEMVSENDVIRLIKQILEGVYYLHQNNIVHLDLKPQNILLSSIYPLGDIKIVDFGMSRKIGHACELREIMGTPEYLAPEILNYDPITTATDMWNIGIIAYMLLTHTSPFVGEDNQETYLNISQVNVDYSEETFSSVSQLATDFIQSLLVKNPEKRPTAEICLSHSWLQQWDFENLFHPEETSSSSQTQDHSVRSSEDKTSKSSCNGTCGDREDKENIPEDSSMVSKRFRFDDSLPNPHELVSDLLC

Compound: CN1CCN(c2ccc(Nc3ncc4cc(C#N)c(=O)n(C5CCCC5)c4n3)cc2)CC1 [Compound 1, 8-cyclopentyl-2-((4-(4-methylpiperazin-1-yl)phenyl)amino)-7-oxo-7,8-dihydropyrido[2,3-d]pyrimidine-6-carbonitrile]
- Group (CETSA-MS thermal shift) [1]: Stabilization
- Group (CETSA-MS thermal shift) [2]: Stabilization
- Group (CETSA-MS thermal shift) [3]: Stabilization
- Group (CETSA-MS thermal shift) [4]: Stabilization
- Group (CETSA-MS thermal shift) [5]: Destabilization
- Group (CETSA-MS thermal shift) [6]: Destabilization
- Group (CETSA-MS thermal shift) [7]: Stabilization
- Group (CETSA-MS thermal shift) [8]: Stabilization
- Group (CETSA-MS thermal shift) [9]: Stabilization
- Group (CETSA-MS thermal shift) [10]: Stabilization
- Group (CETSA-MS thermal shift) [11]: Stabilization
- Group (CETSA-MS thermal shift) [12]: Stabilization
- Group (CETSA-MS thermal shift) [13]: Stabilization
- Group (CETSA-MS thermal shift) [14]: Destabilization
- Group (CETSA-MS thermal shift) [15]: Stabilization
- Group (CETSA-MS thermal shift) [16]: Stabilization
- β-galactosidase staining (senescence) [17]: increased β-galactosidase staining
- cell death (Annexin V/PI), compound alone [18]: induced cell death
- effect of bafilomycin A1 cotreatment on cell death (Annexin V/PI) [18]: increased
- cellular morphology (TEM) [19]: extensive vacuolization
